From PubChem BioAssay (NCI) come the findings set out here.

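Dose response: 5 concentrations. Exposure: 48 h. Format: 96-well plates. Endpoint: linear interpolation; highest concentration if not reached. Definition used: TGI = concentration required for complete inhibition of growth.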

Some test systems named below: HL-60(TB) leukemia; OVCAR-8 ovarian; MALME-3M melanoma; SNB-75 CNS; SK-MEL-5 melanoma; NCI-H226 lung; UACC-62 melanoma; M14 melanoma; 786-0 renal; KM12 colon; HOP-62 NSCLC; OVCAR-5 ovarian; MDA-MB-435; DU-145 prostate; MOLT-4 leukemia; PC-3 prostate.
Assay in all cases: NCI-60 cell line screen, 48 h

As for `CCOC(=O)CC1=N/C(=N/C(=N)N[N+](=O)[O-])SC1`, the TGI in the assay with HL-60(TB) leukemia, with OVCAR-8 ovarian, in the assay with MALME-3M melanoma, in the assay on SNB-75 CNS, in the assay with SK-MEL-5 melanoma and in the assay with NCI-H226 lung was greater than 100 µM throughout. Besides, the TGI in the assay on UACC-62 melanoma, in the assay on M14 melanoma, with 786-0 renal, with KM12 colon, in the assay with HOP-62 NSCLC and in the assay with OVCAR-5 ovarian was greater than 100 µM in each case.
Turning to `COCCN(C(=O)c1ccccc1)C1CCC2(SCCS2)c2[nH]c3ccccc3c21` (stereo not given), the TGI is 55.2 µM in the assay with HL-60(TB) leukemia; 69.6 µM with MDA-MB-435; greater than 100 µM in the assay with OVCAR-8 ovarian; greater than 100 µM with DU-145 prostate; greater than 100 µM in the assay on MALME-3M melanoma; 69.4 µM in the assay with MOLT-4 leukemia. Also, the TGI in the assay with SNB-75 CNS, in the assay with SK-MEL-5 melanoma, with NCI-H226 lung, in the assay on 786-0 renal, in the assay on KM12 colon and in the assay with HOP-62 NSCLC was greater than 100 µM in each case. Further, the figures for the TGI with PC-3 prostate and in the assay on OVCAR-5 ovarian were 59.3 µM and greater than 100 µM, respectively.
Turning to `C=C=C[P+](c1ccccc1)(c1ccccc1)c1ccccc1`, the TGI was 23.4 µM in the assay with HL-60(TB) leukemia; greater than 100 µM in the assay on OVCAR-8 ovarian; 26.7 µM in the assay with MALME-3M melanoma; 16.2 µM with MOLT-4 leukemia; 44.9 µM in the assay with SNB-75 CNS; 23.3 µM in the assay with SK-MEL-5 melanoma. In addition, the TGI is 19.5 µM in the assay with M14 melanoma, 17.7 µM with 786-0 renal, 28.2 µM in the assay with KM12 colon and greater than 100 µM with HOP-62 NSCLC.
For `OCC(O)COCn1cc(Cn2ncc3c(SCc4ccccc4)ncnc32)nn1` (stereo not given), the TGI in the assay on HL-60(TB) leukemia, with MDA-MB-435, with OVCAR-8 ovarian, in the assay on DU-145 prostate, with MOLT-4 leukemia and with SK-MEL-5 melanoma was greater than 100 µM each time. The TGI with NCI-H226 lung, in the assay on UACC-62 melanoma, in the assay with M14 melanoma, with 786-0 renal, in the assay on KM12 colon and in the assay with HOP-62 NSCLC was greater than 100 µM in each case. For the same compound, the TGI in the assay with PC-3 prostate and in the assay with OVCAR-5 ovarian was greater than 100 µM in each case.
Take `COc1cc2c(cc1OS(C)(=O)=O)N=C[C@@H]1CCCN1C2=O`: the TGI in the assay on HL-60(TB) leukemia, with MDA-MB-435, in the assay with OVCAR-8 ovarian, in the assay with DU-145 prostate, in the assay on MALME-3M melanoma and in the assay on MOLT-4 leukemia was greater than 100 µM in each case. In addition, the TGI in the assay with SNB-75 CNS, with SK-MEL-5 melanoma, in the assay on NCI-H226 lung, in the assay with UACC-62 melanoma, in the assay with M14 melanoma and with 786-0 renal was greater than 100 µM throughout. Also, the TGI in the assay with KM12 colon is greater than 100 µM.
With `Nc1ccccc1N`, the TGI in the assay on HL-60(TB) leukemia was 70.3 µM; in the assay on OVCAR-8 ovarian, greater than 100 µM; in the assay with MALME-3M melanoma, greater than 100 µM; in the assay with MOLT-4 leukemia, greater than 100 µM; in the assay on SNB-75 CNS it was greater than 100 µM; in the assay with SK-MEL-5 melanoma, greater than 100 µM. In addition, the TGI in the assay with UACC-62 melanoma, in the assay on M14 melanoma, in the assay on 786-0 renal, in the assay on KM12 colon, in the assay on HOP-62 NSCLC and in the assay with OVCAR-5 ovarian was greater than 100 µM throughout.
On to `CCN(CC)C(=O)CCn1ccc(=O)[nH]c1=O`, for which the TGI in the assay with HL-60(TB) leukemia, in the assay with OVCAR-8 ovarian, in the assay on MALME-3M melanoma, with MOLT-4 leukemia, with SNB-75 CNS and in the assay on SK-MEL-5 melanoma was greater than 100 µM in each case. Also, the TGI in the assay on NCI-H226 lung, in the assay on UACC-62 melanoma, with M14 melanoma, in the assay with 786-0 renal, in the assay on KM12 colon and with HOP-62 NSCLC was greater than 100 µM throughout. This compound showed a TGI in the assay on OVCAR-5 ovarian greater than 100 µM.
As for `CC1(C)CNC(=O)C2(CCCO2)CNC(C)(C)CNC(=O)C2(CCCO2)CN1` (stereo not given), the TGI with HL-60(TB) leukemia, in the assay on MDA-MB-435, in the assay with OVCAR-8 ovarian, with DU-145 prostate, in the assay on MALME-3M melanoma and in the assay on MOLT-4 leukemia was greater than 10 µM throughout. Besides, the TGI with SNB-75 CNS, in the assay with SK-MEL-5 melanoma, in the assay on UACC-62 melanoma, in the assay on M14 melanoma, in the assay with 786-0 renal and in the assay with KM12 colon was greater than 10 µM throughout. Besides, the TGI in the assay with HOP-62 NSCLC, with PC-3 prostate and with OVCAR-5 ovarian was greater than 10 µM in each case.
As for `O=C1C(Cl)C(c2cccc([N+](=O)[O-])c2)N1n1cnc2ccccc2c1=O` (stereo not given), the TGI in the assay with HL-60(TB) leukemia, with OVCAR-8 ovarian, with MALME-3M melanoma, in the assay with MOLT-4 leukemia, in the assay with SNB-75 CNS and in the assay on SK-MEL-5 melanoma was greater than 100 µM each time. For the same compound, the TGI in the assay with NCI-H226 lung, in the assay with UACC-62 melanoma, with M14 melanoma, with 786-0 renal, in the assay on KM12 colon and with HOP-62 NSCLC was greater than 100 µM throughout. Besides, the TGI in the assay on OVCAR-5 ovarian was greater than 100 µM.
Take `Cc1nc2ccc(F)cc2c2c1CCS2`: the TGI with HL-60(TB) leukemia was 47.6 µM; with MDA-MB-435 it was greater than 100 µM; in the assay on OVCAR-8 ovarian, greater than 100 µM; in the assay on DU-145 prostate it was greater than 100 µM; with MALME-3M melanoma, greater than 100 µM; in the assay on MOLT-4 leukemia, greater than 100 µM. For the same compound, the TGI with SNB-75 CNS, with SK-MEL-5 melanoma, in the assay with UACC-62 melanoma, in the assay with 786-0 renal, in the assay with KM12 colon and in the assay on HOP-62 NSCLC was greater than 100 µM throughout. In the assay on PC-3 prostate, this compound displayed a TGI greater than 100 µM.
On to `C/C(=N/NC(=O)c1ccccc1S(N)(=O)=O)C(CN1CCCCC1)C(C1=C(O)C2C=CC=CC2OC1=O)c1ccccc1` (stereo not given), for which the TGI in the assay on HL-60(TB) leukemia was 53.3 µM; in the assay on OVCAR-8 ovarian, greater than 100 µM; in the assay with MALME-3M melanoma it was greater than 100 µM; in the assay with SNB-75 CNS, greater than 100 µM; in the assay with SK-MEL-5 melanoma, greater than 100 µM; in the assay with NCI-H226 lung, greater than 100 µM. Besides, the TGI with UACC-62 melanoma, in the assay with M14 melanoma, in the assay with 786-0 renal, in the assay with KM12 colon, in the assay with HOP-62 NSCLC and with OVCAR-5 ovarian was greater than 100 µM throughout.
For `CC(C)[Si](OC12CCC(CC1O)CC2CO)(C(C)C)C(C)C` (stereo not given), the TGI turned out to be 6.73 µM in the assay on HL-60(TB) leukemia; 31.7 µM in the assay on MDA-MB-435; 29.7 µM with OVCAR-8 ovarian; 35.5 µM in the assay on DU-145 prostate; 44.6 µM with MOLT-4 leukemia; 26.8 µM with SNB-75 CNS. The TGI worked out at 47.6 µM in the assay on SK-MEL-5 melanoma; 33.6 µM in the assay on NCI-H226 lung; 28.9 µM in the assay with UACC-62 melanoma; 28.4 µM with M14 melanoma; 22.3 µM in the assay on 786-0 renal; 25.3 µM in the assay with KM12 colon. The results for the TGI in the assay with HOP-62 NSCLC, in the assay with PC-3 prostate and in the assay on OVCAR-5 ovarian were 29.9 µM, 24.1 µM and 31.2 µM, respectively.
Turning to `CC(=O)OCC1OC(N2C(=O)[C@@H](Oc3ccccc3)[C@H]2/C=C/c2ccccc2)C(OC(C)=O)C(OC(C)=O)C1OC(C)=O` (stereo not given in full), the TGI in the assay on HL-60(TB) leukemia is greater than 100 µM; in the assay on OVCAR-8 ovarian, greater than 100 µM; in the assay on MALME-3M melanoma it was greater than 100 µM; in the assay with MOLT-4 leukemia it was greater than 100 µM; with SNB-75 CNS it was 90 µM; with SK-MEL-5 melanoma, greater than 100 µM. Moreover, the TGI in the assay with NCI-H226 lung, in the assay on UACC-62 melanoma, in the assay with M14 melanoma, with 786-0 renal, with HOP-62 NSCLC and in the assay on OVCAR-5 ovarian was greater than 100 µM in each case.
Regarding `COc1cccc2c1C(=O)c1c(O)c3c(c(O)c1C2=O)C[C@@](O)(C(=O)CO)CC3OC1CC(N(C)CCOCC(OC(C)=O)OC(C)=O)C(O)C(C)O1` (stereo not given in full), the TGI with HL-60(TB) leukemia, in the assay on OVCAR-8 ovarian, in the assay on MALME-3M melanoma, with MOLT-4 leukemia, with SNB-75 CNS and with SK-MEL-5 melanoma was greater than 0.01 µM in each case. Also, the TGI with NCI-H226 lung, with UACC-62 melanoma, in the assay with M14 melanoma, in the assay on 786-0 renal, with KM12 colon and in the assay with HOP-62 NSCLC was greater than 0.01 µM each time. In the assay with OVCAR-5 ovarian, the TGI is greater than 0.01 µM.
For the compound `CC1(OCc2ccccc2)C(=O)N2C1NCC2(C)C` (stereo not given), the TGI with HL-60(TB) leukemia, with OVCAR-8 ovarian, with MALME-3M melanoma, in the assay with MOLT-4 leukemia, in the assay on SNB-75 CNS and in the assay on SK-MEL-5 melanoma was greater than 100 µM in each case. For the same compound, the TGI in the assay with NCI-H226 lung, with UACC-62 melanoma, with M14 melanoma, with 786-0 renal and in the assay on HOP-62 NSCLC was greater than 100 µM throughout.
As for `C=C(Br)C(C)(Cl)CCC(Br)C(C)(C)Br` (stereo not given), the TGI was 54.5 µM with HL-60(TB) leukemia; greater than 100 µM in the assay on OVCAR-8 ovarian; greater than 100 µM in the assay on MALME-3M melanoma; 83.1 µM in the assay on MOLT-4 leukemia; greater than 100 µM with SNB-75 CNS; greater than 100 µM in the assay on SK-MEL-5 melanoma. The TGI in the assay with NCI-H226 lung, in the assay with UACC-62 melanoma, with M14 melanoma, in the assay on 786-0 renal, in the assay with KM12 colon and in the assay on HOP-62 NSCLC was greater than 100 µM throughout. In the assay with OVCAR-5 ovarian, the TGI is greater than 100 µM.
